Test results published in patent US7157256B2, “Method for producing para-hydroxystyrene and other multifunctional aromatic compounds using two-phase extractive fermentation” (E. I. du Pont de Nemours and Company, priority 2003, dated 2007).
Values joined by “and” are separate entries in the source; they are usually repeats but may differ in a detail not shown here. Identical values can stand only once.

What was measured:
Assay type in all cases: cell-based
P. putida NCIMB 9866 = experiment: Effect of pHCA on the growth of Pseudomonas putida NCIMB 9866; settings: pHCA 25 g/L
Method: (§1) Liquid cultures of these strains were grown in 10 mL of LB medium containing 0.25% glucose and 10 mM MgSO4 in 50 mL screw-capped, glass tubes at 30° C. and 200 rpm in an incubator shaker. In all subsequent media, pHCA was added from a 60 g/L stock solution, which was adjusted to pH 7.0 using KOH and then filter-sterilized. Samples of each culture were streaked on LB agar plates containing 0.25% glucose, 10 mM MgSO4 and 30 g/L pHCA and grown at 30° C. Individual colonies taken from these plates were grown to stationary phase at 30° C. in 10 mL of LB medium containing 0.5% glucose, 10 mM MgSO4 and 25 g/L pHCA in 50 mL screw-capped, glass tubes. These stationary phase cultures were diluted 1:25 in fresh LB medium containing 0.5% glucose, 10 mM MgSO4 and either 0 or 25 g/L pHCA and grown in 50 mL screw-capped, glass tubes at 30° C. and 200 rpm in an incubator shaker. Cell growth in these cultures was monitored by taking aliquots and measuring the OD at 600 nm of the culture or dilutions of the culture, which were made with LB medium. These OD measurements were used to calculate the doubling time and growth rate as a percentage of growth observed in test medium without pHCA.

P. putida KT2440 = experiment: Effect of pHCA on the growth of Pseudomonas putida KT2440; settings: pHCA 25 g/L
Method: as §1

E. coli TY1 (DGL430) = experiment: Effect of pHCA and pHS on growth and fermentation of E. coli, shake flasks
Method: This study was done using E. coli TY1 (DGL430), a tyrosine overproducing strain obtained from OmniGene Bioproducts, Inc. (Cambridge, Mass.). This strain also produces phenylalanine. The seed culture of this strain was propagated in a medium consisting of MgSO4.7H2O (0.5 g/L), (NH4)2SO4 (4 g/L), MOPS (20.9 g/L) and 10 mL of phosphate solution. The pH of the seed medium was adjusted to pH 6.8 and then the medium was steam-sterilized. The phosphate solution contained KH2PO4 (57.3 g/L) and K2HPO4 (110.2 g/L) and was adjusted to pH 6.8. The following solutions were then aseptically added to the seed medium to give the final concentration given in parentheses: thiamine (1 mg/L), glucose (1 g/L), lactose (15 g/L), 5 mL of a trace element solution, and tetracycline (5 mg/L). The trace element solution contained citric acid (10 g/L), CaCl2.2H2O (1.5 g/L), FeSO4.7H2O (5 g/L), ZnSO4.7H2O (0.39 g/L) and CuSO4.5H2O (0.38 g/L). The seed medium was inoculated from a frozen pre-seed culture and was grown in 250 mL baffled flasks in an Innova 4000 incubator shaker (New Brunswick Scientific Co., Edison, N.J.), incubated at 35° C. and 300 rpm for 12–16 h. One milliliter of this seed culture was used to inoculate each of the test cultures.
The test medium was 50 mL of an aqueous solution containing: (NH4)2SO4 (4 g), 1 mL of phosphate solution, MgSO4.7H2O (0.5 g), and MOPS (20.9 g), with the pH adjusted to 7.0. After sterilization of this medium, thiamine (1 mg/L), 5 mL of trace element solution, glucose (2 g/L), lactose (15 g/L), IPTG (0.5 mM), and tetracycline (10 mg/L) were aseptically added to give the final concentration given in parentheses. The 250 mL baffled flasks containing 50 mL of the test medium were inoculated with the seed culture and were incubated at 35° C. and 300 rpm for 42 h in the incubator shaker. Samples of the culture were taken at various times and the optical density at 550 nm (OD550) was measured spectrophotometrically. The pH of these samples was also measured. After completion of the fermentation, the tyrosine and phenylalanine concentrations in the culture were measured using HPLC, as described supra.
This experiment was repeated using pHS in place of pHCA.

[1] = adapted cells, LB medium, 30° C.
[2] = percentage of growth without pHCA

O=C(O)C=Cc1ccc(O)cc1 [pHCA, para-hydroxycinnamic acid]
Doubling Time (P. putida NCIMB 9866; [1]): 105 min
Growth Rate, % (P. putida NCIMB 9866; [2]): 18%
Doubling Time (P. putida KT2440; [1]): 79 min
Growth Rate, % (P. putida KT2440; [2]): 21%
OD 550 (E. coli TY1 (DGL430); 17.5 h, pHCA added 1.00 g/L (as sodium pHCA)): 2.47 and 2.41
OD 550 (E. coli TY1 (DGL430); 17.5 h, pHCA added 2.00 g/L): 1.49 and 1.27
OD 550 (E. coli TY1 (DGL430); 17.5 h, pHCA added 4.00 g/L): 0.20 and 0.22
OD 550 (E. coli TY1 (DGL430); 17.5 h, pHCA added 8.00 g/L): 0.15
OD 550 (E. coli TY1 (DGL430); 17.5 h, pHCA added 16.00 g/L): 0.19 and 0.13
OD 550 (E. coli TY1 (DGL430); 29 h, pHCA added 1.00 g/L): 3.22 and 3.57
OD 550 (E. coli TY1 (DGL430); 29 h, pHCA added 2.00 g/L): 1.77 and 1.47
OD 550 (E. coli TY1 (DGL430); 29 h, pHCA added 4.00 g/L): 1.21 and 1.61
OD 550 (E. coli TY1 (DGL430); 29 h, pHCA added 8.00 g/L): 0.16
OD 550 (E. coli TY1 (DGL430); 29 h, pHCA added 16.00 g/L): 0.21 and 0.13
OD 550 (E. coli TY1 (DGL430); 42 h, pHCA added 1.00 g/L): 3.37 and 3.48
OD 550 (E. coli TY1 (DGL430); 42 h, pHCA added 2.00 g/L): 1.62 and 1.53
Phe (E. coli TY1 (DGL430); 42 h, pHCA added 2.00 g/L): 95 mg/L
Tyr (E. coli TY1 (DGL430); 42 h, pHCA added 2.00 g/L): 100 mg/L and 105 mg/L
OD 550 (E. coli TY1 (DGL430); 42 h, pHCA added 4.00 g/L): 1.54 and 1.55
Phe (E. coli TY1 (DGL430); 42 h, pHCA added 4.00 g/L): 15 mg/L and 20 mg/L
Tyr (E. coli TY1 (DGL430); 42 h, pHCA added 4.00 g/L): 65 mg/L and 75 mg/L
OD 550 (E. coli TY1 (DGL430); 42 h, pHCA added 8.00 g/L): 0.18 and 0.17
Phe (E. coli TY1 (DGL430); 42 h, pHCA added 8.00 g/L): 10 mg/L
Tyr (E. coli TY1 (DGL430); 42 h, pHCA added 8.00 g/L): 15 mg/L and 25 mg/L
OD 550 (E. coli TY1 (DGL430); 42 h, pHCA added 16.00 g/L): 0.23 and 0.14
Phe (E. coli TY1 (DGL430); 42 h, pHCA added 16.00 g/L): 5 mg/L
Tyr (E. coli TY1 (DGL430); 42 h, pHCA added 16.00 g/L): 0 mg/L
Phe (E. coli TY1 (DGL430); 42 h, phenylalanine in culture, pHCA added 1.00 g/L): 150 mg/L and 155 mg/L
Tyr (E. coli TY1 (DGL430); 42 h, tyrosine in culture, pHCA added 1.00 g/L): 210 mg/L and 190 mg/L
concentration at which complete inhibition of growth / no growth was observed (E. coli TY1 (DGL430); E. coli TY1 shake flask): 8 g/L
concentration that inhibited cell growth (E. coli TY1 (DGL430); E. coli TY1 shake flask): 1 g/L
